Experiments:
[1] = tested on: Nlrp3 A350V/+ CreT knock-in mice; experiment: Nlrp3 A350V/+ CreT knock-in mouse model of Muckle Wells syndrome; assay type: in vivo; conditions: 30 mg/kg orally once daily
Description: The effect of JT002 treatment on systemic and hepatic inflammation and hepatic fibrosis was evaluated in vivo using a murine Nlrp3 knock-in (KI) model of human Muckle Wells syndrome. In humans, mutation of alanine 352 to valine (A352V) in NLRP3 results in the constitutively active NLRP3 inflammasome which leads to excessive cytokine production and a clinical presentation characteristic of MWS[11]. The Nlrp3^A350V/+ CreT KI murine model (Nlrp3 KI model) contains a conditional A350V autosomal-dominant mutation that is analogous to the human A352V mutation[13],[23],[25]. In this model, mutant Nlrp3 expression occurs only in mice expressing Cre recombinase, which is inducible through the administration of tamoxifen, thus allowing for temporal control of the gain-of-function mutant Nlrp3. In vehicle-control mice, tamoxifen-induced activation of mutant Nlrp3 produces an inflammatory and fibrotic phenotype consisting of weight loss, increased liver weight, elevated liver alanine aminotransferase (ALT), systemic and hepatic neutrophilia, increased hepatic collagen deposition, and increased numbers of activated hepatic stellate cells (HSCs)[13],[23],[25]. In the Nlrp3^A350V/+ CreT study, vehicle or 30 mg/kg JT002 (n = 4/group) was dosed orally once daily starting one day prior to the first administration of tamoxifen. One animal from each group was found dead on day 4 and day 11 from the JT002 dosed group and the vehicle group, respectively, leaving only 3 animals per group. […] Serum levels of ALT in vehicle-treated mice averaged 186 U/L while ALT levels were reduced to 93 U/L in mice administered JT002 (Fig. 4C).
Total RNA was isolated from liver tissue (~ 50 mg) via syringe homogenization in TRIzol™ and cDNA synthesized using the iScript™ cDNA Synthesis kit (Biorad, Hercules, CA, USA). Real-time PCR was performed using TaqMan Fast Advanced Master Mix (ThermoFisher) and samples were amplified using QuantStudio-7 (ThermoFisher) in accordance with manufacturers’ instructions. The following TaqMan Gene Expression Assays (cat. no. 4331182, Applied Biosystems, Foster City, CA) were used: Acta2, Mm00725412_s1; Ctgf, Mm01192933_g1; Mpo, Mm01298424_m1; Pycard, Mm00445747_g1; Casp1, Mm00438023_m1; Il1b assay ID Mm00434228_m1.
Nlrp3^A350V/+ CreT knock-in mice were provided by Hal M. Hoffman, University of California, San Diego, USA. The study was performed using two randomized groups of male and female Nlrp3^A350V/+ CreT mice (n = 4/group) between 6- and 8-weeks of age at the start of the study. Vehicle (0.5% methyl cellulose, 0.25% Tween 80 in 50 mM NaH2PO4/Na2HPO4 at pH 7.8) or JT002 at 30 mg/kg was administered orally once daily for 30 days starting on Day 1. Tamoxifen (free base) (MP Biomedicals, Solon, OH, USA) was prepared in 90% sunflower seed oil and 10% ethanol and administered at 50 mg/kg intraperitoneally (IP) daily for 4 consecutive days, starting on Day 1, followed by a booster injection on Day 16. Mice were weighed every day to monitor compound activity. On Day 29, a submandibular cheek bleed was performed to obtain whole blood for total blood cell counting. Mice were euthanized on Day 30 and blood and livers were harvested and stored appropriately. Tissue specimens were fixed in 10% formalin and subsequently embedded in paraffin for histopathological assessments, or snap frozen in liquid N2 and stored in low temperature freezers. Complete blood counts and differentials were conducted on a HemaVet Auto Blood Analyzer (Drew Scientific, Miami Lakes, FL, USA). In vitro quantitative determination of alanine aminotransferase (ALT) in serum was performed using the Infinity™ ALT (GPT) Liquid Stable Reagent (cat. n. TR71121, Fisher Diagnostics, Middletown, VA, USA). Sirius Red staining and immunohistochemistry for hepatic MPO and αSMA were performed as described previously.

[2] = target: T1, NLRP3 inflammasome assembly (ASC speck) (Mus musculus, UniProt Q8R4B8); experiment: Inhibition of ASC speck formation by immunofluorescence in LPS + nigericin treated mouse BMDMs; assay type: cell-based
T1 construct: host or cells: mouse PBMCs; mouse bone-marrow derived macrophages; mouse whole blood (C57BL/6 in the ex vivo study)
Description: Mouse BMDMs (2.5 × 10^4 cells/well) were plated in Collagen-IV coated 96-well plates. On the day of the assay, cells were washed with serum-free media then primed with 100 ng/mL LPS for 3 h in DMEM/F12 (1:1) containing L-glutamine. JT002 or DMSO was added to each well and incubated at 37 °C for 30 min prior to stimulation with 10 μM nigericin for 1.5 h. Cells were briefly centrifuged, rinsed with PBS, and fixed with 4% formaldehyde in PBS overnight at 4 °C. Cells were blocked and permeabilized in PBS with 10% goat serum, 1% FBS, 0.5% Triton X-100 for 30 min at 37 °C and incubated with ASC antibody (Millipore-Sigma, Cat #04-147) overnight at 4 °C. Cells were incubated with anti-mouse IgG Alexa Fluor-488 for 1 h at 37 °C. Nuclei were stained with Hoechst 33342 in PBS for 5 min and imaged using a CellInsight CX7 High-Content Screening Platform (ThermoFisher) at Phenovista Biosciences (San Diego, CA, USA).

T1 sequence (Q8R4B8 whole entry): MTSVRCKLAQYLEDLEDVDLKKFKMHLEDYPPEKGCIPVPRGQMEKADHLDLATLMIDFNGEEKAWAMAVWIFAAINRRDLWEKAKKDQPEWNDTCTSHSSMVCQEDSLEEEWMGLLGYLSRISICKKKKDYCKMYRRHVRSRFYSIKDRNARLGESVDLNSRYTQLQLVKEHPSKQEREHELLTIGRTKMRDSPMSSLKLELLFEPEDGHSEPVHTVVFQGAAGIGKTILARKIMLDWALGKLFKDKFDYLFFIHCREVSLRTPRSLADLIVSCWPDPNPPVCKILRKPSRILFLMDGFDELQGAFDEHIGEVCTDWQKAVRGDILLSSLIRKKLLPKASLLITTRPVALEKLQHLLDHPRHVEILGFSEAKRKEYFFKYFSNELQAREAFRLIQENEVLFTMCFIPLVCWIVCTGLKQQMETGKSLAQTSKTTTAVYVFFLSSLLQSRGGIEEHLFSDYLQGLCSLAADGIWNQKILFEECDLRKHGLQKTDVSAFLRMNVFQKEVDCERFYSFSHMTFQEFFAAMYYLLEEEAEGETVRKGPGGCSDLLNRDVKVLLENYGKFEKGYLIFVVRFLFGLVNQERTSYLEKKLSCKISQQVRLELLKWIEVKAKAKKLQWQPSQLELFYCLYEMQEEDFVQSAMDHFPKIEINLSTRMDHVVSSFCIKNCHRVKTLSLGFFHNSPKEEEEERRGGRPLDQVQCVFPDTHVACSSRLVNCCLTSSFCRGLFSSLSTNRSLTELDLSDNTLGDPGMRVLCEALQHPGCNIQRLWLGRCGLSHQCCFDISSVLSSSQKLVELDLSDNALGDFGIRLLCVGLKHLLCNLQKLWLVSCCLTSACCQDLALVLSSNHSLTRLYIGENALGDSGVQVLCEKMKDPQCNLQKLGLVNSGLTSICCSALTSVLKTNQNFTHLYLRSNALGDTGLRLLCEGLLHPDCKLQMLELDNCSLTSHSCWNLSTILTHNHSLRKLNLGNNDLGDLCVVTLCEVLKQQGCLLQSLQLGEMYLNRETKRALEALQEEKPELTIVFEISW

Q: CO[C@@H]1COc2c(S(=O)(=O)NC(=O)Nc3c4c(cc5c3CCC5)CCC4)cnn2C1 [JT002] was tested. Which body weight loss [1] did it give?
A: The body weight loss was “prevented the body weight loss”.

Q: And the circulating eosinophil count [1]?
A: Its circulating eosinophil count is “strong trend for reduced”.

Q: And the circulating neutrophil count [1]?
A: The circulating neutrophil count was “significant normalization”.

Q: What about the “circulating total white blood cell count” value [1] of the same compound?
A: Its value is “significant normalization”.

Q: And the “degree of liver inflammation by H&E staining” value [1]?
A: The value was “visible reduction in the degree of inflammation”.

Q: And the “hepatic collagen content (Picrosirius red staining)” value [1]?
A: The value was “considerably reduced”.

Q: And the “hepatic gene expression of Acta2” value [1]?
A: The value was “substantially downregulated”.

Q: And the “hepatic gene expression of Casp1” value [1]?
A: Its value is “substantially reduced”.

Q: What about the “hepatic gene expression of Ctgf” value [1] of the same compound?
A: The value was “substantially downregulated”.

Q: What about the “hepatic gene expression of Il1b” value [1] of the same compound?
A: The value was “substantially reduced”.

Q: And the “hepatic gene expression of Mpo” value [1]?
A: The value was “substantially reduced”.

Q: What about the “hepatic gene expression of Pycard (ASC)” value [1] of the same compound?
A: Its value is “substantially reduced”.

Q: What about the “reduction in hepatic immunostaining for αSMA (HSC activation)” value [1] of the same compound?
A: The value was 93%.

Q: And the “reduction of hepatic neutrophil recruitment (myeloperoxidase immunostaining)” value [1]?
A: Its value is 91%.

Q: And the “liver weight as a percent of body weight” value ([1]; vehicle 9.4)?
A: Its value is 5.7%.

Q: What about the “serum ALT level” value ([1]; vehicle 186 U/L) of the same compound?
A: Its value is 93 U/L.

Q: What about the IC50 ([2]; Mouse BMDM, read-out: Geo Av IC50, ASC specks) of the same compound?
A: The IC50 was 3 nM.

Q: What about the ASC speck formation ([2]; mBMDMs, 2 µM JT002 prior to NLRP3 activation) of the same compound?
A: The ASC speck formation was “completely prevented ASC speck formation”.

Reference: article PMC10439952, “JT002, a small molecule inhibitor of the NLRP3 inflammasome for the treatment of autoinflammatory disorders” (Scientific Reports, 2023)
